Measurements reported in PubChem BioAssay (NCI).
Several values for one entry are separate records, joined by “and”; a condition that tells them apart may be missing. Equal values may be shown once.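 Tested at 5 concentrations; 48 h exposure; 96-well plates; endpoints linearly interpolated, else capped at highest concentration. Abbreviation: GI50, concentration required for 50% inhibition of growth. TGI denotes the concentration required for complete inhibition of growth.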

What was measured:
Experiment in all cases: inhibition of tumour cell growth, NCI panel, 48 h
[1] = test system: CCRF-CEM leukemia
[2] = test system: COLO 205 colon
[3] = test system: EKVX NSCLC
[4] = test system: NCI-H226 lung
[5] = test system: NCI-H23 lung
[6] = test system: SN12C renal
[7] = test system: TK-10 renal
[8] = test system: UACC-62 melanoma
[9] = test system: IGROV1 ovarian
[10] = test system: A498 renal

Which TGI [1] does the source give for O=[N+]([O-])c1cnn(C2=CNc3ccccc3N=C2)c1 here?
Its TGI is over 100 µM.

What about the TGI [2] of the same molecule?
The TGI was over 100 µM.

What about the TGI [3] of the same molecule?
The TGI was over 100 µM.

What about the TGI [4] of the same molecule?
Its TGI is over 100 µM.

And the TGI [5]?
The TGI was over 100 µM.

And the TGI [6]?
Its TGI is over 100 µM.

What about the TGI [7] of the same molecule?
The TGI was over 100 µM.

What about the TGI [8] of the same molecule?
Its TGI is over 100 µM.

For CCOC(=O)c1cc(/C=C/C(C)=C/C(=O)OC)oc1C, which TGI [1] is on record?
Its TGI is over 100 µM.

What about the TGI [2] of the same molecule?
Its TGI is over 100 µM.

What about the TGI [3] of the same molecule?
Its TGI is over 100 µM.

And the TGI [9]?
The TGI was over 100 µM.

What about the TGI [5] of the same molecule?
Its TGI is over 100 µM.

And the TGI [7]?
Its TGI is over 100 µM.

And the TGI [8]?
The TGI was over 100 µM.

What does the source list for COc1cc(C(=O)Nc2cc3c(cc2Oc2cc(C)cc(C)c2)C(=O)N(C)[C@@H](CC(=O)N(C)O)C(=O)N3)c(Br)c(OC)c1OC?
GI50 [10]: < 0.00333 µM; TGI [10]: 0.00573 µM; GI50 [3]: < 0.00333 µM; TGI [3]: 0.0201 µM; GI50 [9]: < 0.00333 µM; TGI [9]: 0.0104 µM; GI50 [4]: < 0.00333 µM; TGI [4]: 0.0128 µM; GI50 [5]: < 0.00333 µM; TGI [5]: 0.00543 µM; GI50 [6]: < 0.00333 µM; TGI [6]: < 0.00333 µM; GI50 [7]: 0.00526 µM; TGI [7]: 0.0264 µM; GI50 [8]: < 0.00333 µM; TGI [8]: < 0.00333 µM

Which TGI [2] does the source give for NC(=S)NNc1c([N+](=O)[O-])cnn(-c2ccccc2)c1=O here?
Its TGI is 26.7 µM.

And the TGI [9]?
The TGI was 35 µM.

What about the TGI [4] of the same molecule?
Its TGI is 35 µM.

What about the TGI [5] of the same molecule?
The TGI was 34.4 µM.

What about the TGI [6] of the same molecule?
The TGI was 31.4 µM.

What about the TGI [7] of the same molecule?
Its TGI is 46.6 µM.

What about the TGI [8] of the same molecule?
The TGI was 24.4 µM.

What does the source list for O=C(O)C1CCCCC1C(=O)O.[NH-]C1CCC1.[NH2-].[Pt+2] (stereo unspecified)?
GI50 [2]: 10.3 µM; TGI [2]: 24.6 µM; GI50 [3]: 26.5 µM; TGI [3]: 84.8 µM; GI50 [9]: 57.5 µM; TGI [9]: > 100 µM; GI50 [4]: 18.9 µM; TGI [4]: 42.8 µM; GI50 [5]: 22.4 µM; TGI [5]: > 100 µM; GI50 [6]: 11.8 µM; TGI [6]: 26.7 µM; GI50 [7]: 18.1 µM; TGI [7]: 34.4 µM; GI50 [8]: 11.4 µM; TGI [8]: 23.6 µM

Nc1ccccc1C#C/C=C\C#Cc1ccccc1[N+](=O)[O-] was tested. Which GI50 [10] did it give?
The GI50 was 25.4 µM.

And the TGI [10]?
Its TGI is 69.7 µM.

And the GI50 [1]?
The GI50 was 3.75 µM.

What about the TGI [1] of the same molecule?
Its TGI is 18.1 µM.

What about the GI50 [2] of the same molecule?
Its GI50 is 4.38 µM.

What about the TGI [2] of the same molecule?
The TGI was 22 µM.

And the GI50 [3]?
The GI50 was 2.51 µM.

And the TGI [3]?
Its TGI is 17.8 µM.

What about the GI50 [9] of the same molecule?
The GI50 was 10.9 µM.

And the TGI [9]?
Its TGI is 79.8 µM.

And the GI50 [5]?
Its GI50 is 12.4 µM.

What about the TGI [5] of the same molecule?
The TGI was 38.5 µM.

What about the GI50 [6] of the same molecule?
Its GI50 is 3.18 µM.

What about the TGI [6] of the same molecule?
The TGI was 13.7 µM.

And the GI50 [7]?
Its GI50 is 28.2 µM.

What about the TGI [7] of the same molecule?
The TGI was over 100 µM.

And the GI50 [8]?
Its GI50 is 2.02 µM.

What about the TGI [8] of the same molecule?
Its TGI is 10.6 µM.

How did the TGI [10] turn out when CCC1=NC(CO)[C@H](c2ccccc2)O1 (stereo partly specified) was run?
The TGI was over 100 µM.

What about the TGI [2] of the same molecule?
The TGI was over 100 µM.

What about the TGI [3] of the same molecule?
Its TGI is over 100 µM.

And the TGI [9]?
Its TGI is over 100 µM.

What about the TGI [5] of the same molecule?
The TGI was over 100 µM.

What about the TGI [6] of the same molecule?
The TGI was over 100 µM.

What about the TGI [7] of the same molecule?
The TGI was over 100 µM.

What about the TGI [8] of the same molecule?
Its TGI is over 100 µM.

For Cc1c(C(=O)NCCN2CCOCC2)cn2ncnc(Oc3ccc(NC(=O)Nc4ccc(Cl)c(C(F)(F)F)c4)cc3)c12, which GI50 [10] is on record?
Its GI50 is 1.6 µM.

What about the TGI [10] of the same molecule?
The TGI was 3.08 µM.

What about the GI50 [8] of the same molecule?
The GI50 was 1.34 µM.

And the TGI [8]?
Its TGI is 2.84 µM.

How did the TGI [10] turn out when Cc1cccc(C)c1NC(=O)C1C(=O)N(c2c(C)cccc2C)C(=O)/C1=N\NC(N)=S (stereo unspecified) was run?
The TGI was over 100 µM.

What about the TGI [1] of the same molecule?
The TGI was over 100 µM.

And the TGI [3]?
The TGI was over 100 µM.

What about the TGI [9] of the same molecule?
Its TGI is over 100 µM.

What about the TGI [5] of the same molecule?
Its TGI is over 100 µM.

And the TGI [6]?
Its TGI is over 100 µM.

What about the TGI [7] of the same molecule?
The TGI was over 100 µM.

And the TGI [8]?
The TGI was over 100 µM.

Cc1ccc(-c2cc(-c3ccco3)c(C#N)c(=O)n2C2OC(OC(=O)c3ccccc3)C(OC(=O)c3ccccc3)C2OC(=O)c2ccccc2)cc1 (stereo unspecified) was tested. Which TGI [10] did it give?
The TGI was over 100 µM.

And the TGI [1]?
Its TGI is over 100 µM.

What about the TGI [3] of the same molecule?
The TGI was over 100 µM.

What about the TGI [9] of the same molecule?
Its TGI is over 100 µM.

And the TGI [6]?
Its TGI is over 100 µM.

And the TGI [7]?
The TGI was over 100 µM.

And the TGI [8]?
The TGI was over 100 µM.

Which results are given for N#CCCN(CCC#N)c1ccc(C(Sc2ccccc2)C(NC(=O)c2cc([N+](=O)[O-])ccc2Cl)C(=O)Sc2ccccc2)cc1 (stereo unspecified)?
TGI [1]: 0.765 µM and 0.479 µM; GI50 [2]: 2.9 µM; TGI [2]: 6.75 µM and 7.77 µM; GI50 [3]: 5.74 µM; TGI [3]: 9.96 µM and 25.5 µM; GI50 [9]: 1.49 µM; TGI [9]: 8.99 µM and 4.2 µM; TGI [4]: 5.16 µM and 5.01 µM; GI50 [5]: 2.84 µM; TGI [5]: 13.5 µM; TGI [6]: 4.54 µM and 6.19 µM; GI50 [7]: 3.97 µM; TGI [7]: 9.62 µM; GI50 [8]: 2.58 µM; TGI [8]: 6.02 µM and 10.5 µM

Which results are given for COC(=O)c1nc(Cl)nc(Cl)c1Cl?
TGI [1]: 27.7 µM; TGI [2]: 36 µM; TGI [9]: 66 µM; TGI [4]: 64.4 µM; TGI [5]: > 100 µM; TGI [6]: 45.1 µM; TGI [7]: 47.8 µM

For CN(C)CCCNC(=O)c1ccc2c(c1)oc1cc3ccccc3c(=O)n12, which GI50 [2] is on record?
The GI50 was 14.6 µM.

What about the TGI [2] of the same molecule?
Its TGI is 32.5 µM.

What about the GI50 [3] of the same molecule?
Its GI50 is 17.6 µM.

What about the TGI [3] of the same molecule?
The TGI was 45.7 µM.

And the GI50 [9]?
The GI50 was 9.94 µM.

What about the TGI [9] of the same molecule?
Its TGI is 43.5 µM.

What about the GI50 [5] of the same molecule?
Its GI50 is 35.4 µM.

And the TGI [5]?
Its TGI is over 50 µM.

And the GI50 [6]?
The GI50 was 15.4 µM.

And the TGI [6]?
Its TGI is 43.4 µM.

What about the GI50 [7] of the same molecule?
The GI50 was 25.1 µM.

What about the TGI [7] of the same molecule?
The TGI was over 50 µM.

And the GI50 [8]?
Its GI50 is over 50 µM.

And the TGI [8]?
Its TGI is over 50 µM.

How did the TGI [10] turn out when COc1ccc(/C=C2\CCCC(C(NO)c3ccc(OC)cc3)C2=NO)cc1 (stereo unspecified) was run?
The TGI was over 100 µM.

What about the TGI [1] of the same molecule?
The TGI was over 100 µM.

What about the TGI [2] of the same molecule?
The TGI was over 100 µM.

And the TGI [3]?
The TGI was over 100 µM.

And the TGI [9]?
Its TGI is over 100 µM.

What about the TGI [5] of the same molecule?
Its TGI is over 100 µM.

What about the TGI [6] of the same molecule?
The TGI was over 100 µM.

What about the TGI [7] of the same molecule?
Its TGI is over 100 µM.

What about the TGI [8] of the same molecule?
The TGI was over 100 µM.

What does the source list for Cc1ccccc1C1=C(C(=O)Nc2ccc(Cl)c(Cl)c2)NC(=S)NC1N (stereo unspecified)?
TGI [10]: > 100 µM; TGI [1]: > 100 µM; TGI [2]: > 100 µM; TGI [3]: > 100 µM; TGI [9]: > 100 µM; TGI [5]: > 100 µM; TGI [6]: > 100 µM; TGI [7]: > 100 µM; TGI [8]: > 100 µM

Which results are given for CC(=O)NC(CCCCNC(=O)NCCCl)C(=O)NCc1ccccc1 (stereo unspecified)?
TGI [1]: > 100 µM; TGI [2]: > 100 µM; TGI [3]: > 100 µM; TGI [4]: > 100 µM; TGI [5]: > 100 µM; TGI [6]: > 100 µM; TGI [7]: > 100 µM; TGI [8]: > 100 µM
